Laboratory results as given in patent US12109204B2, “Methods for treating muscular dystrophies” (The Regents of the University of California, priority 2018, dated 2024).

Tests used:
Assay type in all cases: cell-based, murine
SSPN, sarcospan [1] = test: SSPN gene expression by qPCR in C2C12 wild-type myotubes; conditions: 1-10 μM, 48 hours, normalized to β-actin (FIG. 10c)
Method: (§1) RNA from myotubes treated for 48 hours was extracted from cells using Trizol-based (Thermo Fisher Scientific) phase separation. RNA concentrations were determined using a NanoDrop 1000 (Thermo Fisher Scientific) and 750 ng of RNA in a 20 μl reaction was reverse transcribed using iScript cDNA synthesis (Bio-Rad) with the following cycling conditions: 25° C. for 5 minutes, 42° C. for 30 minutes, 85° C. for 5 minutes. For quantitative PCR, SsoFast EvaGreen Supermix (Bio-Rad), 400 nM of each optimized forward and reverse primer (for primer descriptions see Table 1), and cDNA corresponding to 37.5 ng RNA were used to amplify cDNA measured by Applied Biosystems 7300 (Thermo Fisher Scientific) with the following reaction conditions: 55° C. for 2 minutes, 95° C. for 2 minutes, 40 cycles of 95° C. for 10 seconds and 62° C. for 30 seconds, and dissociation stage. Each sample was run in triplicate. Data was analyzed using the ddCT method and normalized to reference gene, GAPDH or β-actin, with vehicle-treated samples serving as the calibrator (relative expression of vehicle control=1). C2C12 cells (American Type Culture Collection) were grown at 37° C. with 5% CO2 in growth media containing DMEM (Gibco) with 20% FBS (Sigma-Aldrich). Upon reaching confluency, the media was replaced with differentiation media containing DMEM with 2% horse serum (Sigma-Aldrich). Conditionally immortalized H2K mdx myoblast cells with a nonsense mutation in exon 23 of dystrophin were a gift from Terrance Partridge, Ph.D. (Children's National Medical Center, Washington, D.C.). Cells were allowed to proliferate on 0.01% gelatin (Sigma-Aldrich) coated plates at 33° C. with 5% CO2 with growth media containing DMEM, 20% HI-FBS (Invitrogen), 2% L-glutamine (Sigma-Aldrich), 2% chicken embryo extract (Accurate Chemical), 1% penicillin-streptomycin (Sigma-Aldrich), and 20U/ml of fresh interferon gamma (Gibco). For differentiation, H2K mdx myoblasts were seeded on plates coated with 0.1 mg/ml matrigel (Corning) diluted in DMEM and grown in proliferation conditions. […]

UTRN, utrophin = test: UTRN gene expression by qPCR in C2C12 wild-type myotubes; conditions: C2C12 wild-type myotubes, 48 hours, normalized to β-actin (FIG. 12a)
Method: as §1, with “(Sigma-Aldrich).” for “(Sigma-Aldrich). Conditionally immortalized H2K mdx myoblast cells with a nonsense mutation in exon 23 of dystrophin were a gift from Terrance Partridge, Ph.D. (Children's National Medical Center, Washington, D.C.). Cells were allowed to proliferate on 0.01% gelatin (Sigma-Aldrich) coated plates at 33° C. with 5% CO2 with growth media containing DMEM, 20% HI-FBS (Invitrogen), 2% L-glutamine (Sigma-Aldrich), 2% chicken embryo extract (Accurate Chemical), 1% penicillin-streptomycin (Sigma-Aldrich), and 20U/ml of fresh interferon gamma (Gibco). For differentiation, H2K mdx myoblasts were seeded on plates coated with 0.1 mg/ml matrigel (Corning) diluted in DMEM and grown in proliferation conditions.”

MYOG, myogenin = test: MYOG gene expression by qPCR in C2C12 wild-type myotubes; conditions: 48 hours, normalized to β-actin (FIG. 12a)
Method: as §1, with “(Sigma-Aldrich).” for “(Sigma-Aldrich). Conditionally immortalized H2K mdx myoblast cells with a nonsense mutation in exon 23 of dystrophin were a gift from Terrance Partridge, Ph.D. (Children's National Medical Center, Washington, D.C.). Cells were allowed to proliferate on 0.01% gelatin (Sigma-Aldrich) coated plates at 33° C. with 5% CO2 with growth media containing DMEM, 20% HI-FBS (Invitrogen), 2% L-glutamine (Sigma-Aldrich), 2% chicken embryo extract (Accurate Chemical), 1% penicillin-streptomycin (Sigma-Aldrich), and 20U/ml of fresh interferon gamma (Gibco). For differentiation, H2K mdx myoblasts were seeded on plates coated with 0.1 mg/ml matrigel (Corning) diluted in DMEM and grown in proliferation conditions.”

SSPN, sarcospan [2] = test: SSPN gene expression by qPCR in mdx myotubes; conditions: for SSPN gene expression over vehicle: 1-10 μM, 48 hours, normalized to β-actin (FIG. 10d)
Method: as §1

[3] = tested on: hSSPN-EGFP myotubes (human sarcospan promoter reporter in C2C12); test: hSSPN-EGFP reporter myotube assay (high-content imaging); conditions: doses between 3.9 nm to 1 μM, 48 hours (FIG. 10a)

**Q.** `CCOC(=O)C1=C(C)NC(C)=C(C(=O)OC)C1c1cccc(Cl)c1Cl` (centres unmarked) [Felodipine, 5-O-ethyl 3-O-methyl 4-(2,3-dichlorophenyl)-2,6-dimethyl-1,4-dihydropyridine-3,5-dicarboxylate] was tested. Which “SSPN gene expression over vehicle” value (SSPN, sarcospan [1]) did it give?
**A.** The value was “increases sarcospan gene expression”.

**Q.** What about the “SSPN gene expression over vehicle” value (SSPN, sarcospan [1]; listed as felodipine) of the same molecule?
**A.** Its value is “increased over vehicle”.

**Q.** What about the utrophin gene expression (UTRN, utrophin) of the same molecule?
**A.** The utrophin gene expression was “increases”.

**Q.** What about the myogenin gene expression (MYOG, myogenin) of the same molecule?
**A.** The myogenin gene expression was “increases”.

**Q.** And the “SSPN gene expression over vehicle” value (SSPN, sarcospan [2])?
**A.** The value was “increases sarcospan gene expression”.

**Q.** What about the “SSPN gene expression over vehicle” value (SSPN, sarcospan [2]; listed as felodipine) of the same molecule?
**A.** The value was “increase in SSPN gene expression”.

**Q.** What about the “SSPN gene expression relative to vehicle” value (SSPN, sarcospan [2]; 48h, normalized to GAPDH, n=2 (FIG. 11d)) of the same molecule?
**A.** Its value is “only increased sarcospan levels”.

**Q.** And the “hSSPN-EGFP reporter activity, counterscreen” value [3]?
**A.** The value was “increased activity”.
